Source: article PMC9505538, “P-Glycoprotein (MDR1/ABCB1) Restricts Brain Accumulation of the Novel EGFR Inhibitor EAI045 and Oral Elacridar Coadministration Enhances Its Brain Accumulation and Oral Exposure” (Pharmaceuticals, 2022)

Columns and labels:
[1] = biological target: T1, endogenous canine ABCB1 (Canis lupus familiaris, UniProt C0KKU9); assay: Transepithelial transport of EAI045 across MDCK-II parental cell layers; type: in vitro ADME; conditions: for efflux ratio r (relative transport ratio): EAI045 5 μM
T1 construct: the endogenous canine ABCB1, expressed at low levels in the parental cell line; endogenous in cells; host or cells: MDCK-II parental cells (ECACC 00062107)
Protocol: (§1) Transport of EAI045 (5 μM) across epithelia was tested using cell layers of Madin–Darby Canine Kidney (MDCK-II) cells and derived clones expressing hABCB1, hABCG2, or mAbcg2 cDNA. […] In cells overexpressing hABCB1, there was clear transport of EAI045 in the apical direction (r = 5.5, Figure 1C). […] To evaluate the interaction between hABCG2 and mAbcg2 and EAI045, zosuquidar (5 μM) was added to inhibit any endogenous canine ABCB1. In cells overexpressing hABCG2, the BA transport of EAI045 was somewhat increased relative to the AB transport, resulting in an efflux ratio of 1.4 (Figure 1E).
(§2) Figure 1 In vitro transepithelial transport of EAI045 (5 μM) using MCDK-II parental cells (A,B) or transduced with human ABCB1 (C,D), human ABCG2 (E,F), or murine Abcg2 (G,H) cDNA. At t = 0 EAI045 was added in the donor compartment (either apical or basolateral). At 1, 2, and 4 h EAI045 was quantified in the acceptor compartment and the cumulative total transported amount per well was plotted (n = 3). Zosuquidar (5 μM) was added to inhibit the human and/or the endogenous ABCB1, while Ko143 (5 μM) was added to inhibit the human or murine ABCG2. r, relative transport ratio. […] Points, mean; bars, SD. TEXT PRINTED IN THE PICTURE: (A) no label printed: Parental: r = 1.7 | (B) no label printed: Parental + Zos.: r = 1.1 | (C) no label printed: hABCB1: r = 5.5 | (D) no label printed: hABCB1 + Zos.: r = 1.3 | (E) no label printed: hABCG2 + Zos.: r = 1.4 | (F) no label printed: hABCG2 + Zos. + Ko143: r = 1.1 | (G) no label printed: mAbcg2 + Zos.: r = 1.8 | (H) no label printed: mAbcg2 + Zos. + Ko143: r = 1.4
(§3) Madin–Darby Canine Kidney (MDCK-II) cells (ECACC 00062107) stably transduced with human (h) ABCB1, hABCG2, or mouse (m) Abcg2 cDNA were generated in our institute between 1998 and 2005. […] In short, cells were allowed to grow an intact monolayer in 3 days, which was monitored with transepithelial electrical resistance (TEER) measurements, both before and after the transport phase. […] Proper functionality of these cell lines was monitored by continual testing with a variety of drug substrates.

[2] = biological target: T2, murine Abcg2 (Mus musculus, UniProt Q7TMS5); assay: Transepithelial transport of EAI045, MDCK-II cells transduced with murine Abcg2; type: in vitro ADME; conditions: for efflux ratio r (relative transport ratio): EAI045 5 μM
T2 construct: expressed in transfected cells; host or cells: MDCK-II cells, stably transduced, generated in the authors' institute
T2 sequence (Q7TMS5 1-657): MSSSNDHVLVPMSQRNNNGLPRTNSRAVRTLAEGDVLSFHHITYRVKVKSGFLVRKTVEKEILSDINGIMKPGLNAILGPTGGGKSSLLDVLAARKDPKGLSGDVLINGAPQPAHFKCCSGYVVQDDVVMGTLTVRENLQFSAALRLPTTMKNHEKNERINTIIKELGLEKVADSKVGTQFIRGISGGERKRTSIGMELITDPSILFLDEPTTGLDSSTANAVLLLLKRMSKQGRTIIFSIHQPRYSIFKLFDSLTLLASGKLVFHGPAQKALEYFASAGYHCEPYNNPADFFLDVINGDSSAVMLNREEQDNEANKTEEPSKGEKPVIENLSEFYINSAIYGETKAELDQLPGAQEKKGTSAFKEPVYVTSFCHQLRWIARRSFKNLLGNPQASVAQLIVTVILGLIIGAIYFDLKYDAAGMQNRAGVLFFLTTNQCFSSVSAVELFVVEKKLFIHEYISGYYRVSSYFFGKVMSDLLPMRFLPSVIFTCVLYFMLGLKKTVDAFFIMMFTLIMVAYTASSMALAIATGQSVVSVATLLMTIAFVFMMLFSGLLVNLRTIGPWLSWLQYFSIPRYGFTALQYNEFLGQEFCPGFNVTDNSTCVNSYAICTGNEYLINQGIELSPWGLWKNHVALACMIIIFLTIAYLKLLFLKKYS
Protocol: as §1, §2, §3

[3] = tested on: lung cancer driven by EGFR(L858R/T790M); conditions: cited from earlier work

T1 sequence (C0KKU9 1-1281): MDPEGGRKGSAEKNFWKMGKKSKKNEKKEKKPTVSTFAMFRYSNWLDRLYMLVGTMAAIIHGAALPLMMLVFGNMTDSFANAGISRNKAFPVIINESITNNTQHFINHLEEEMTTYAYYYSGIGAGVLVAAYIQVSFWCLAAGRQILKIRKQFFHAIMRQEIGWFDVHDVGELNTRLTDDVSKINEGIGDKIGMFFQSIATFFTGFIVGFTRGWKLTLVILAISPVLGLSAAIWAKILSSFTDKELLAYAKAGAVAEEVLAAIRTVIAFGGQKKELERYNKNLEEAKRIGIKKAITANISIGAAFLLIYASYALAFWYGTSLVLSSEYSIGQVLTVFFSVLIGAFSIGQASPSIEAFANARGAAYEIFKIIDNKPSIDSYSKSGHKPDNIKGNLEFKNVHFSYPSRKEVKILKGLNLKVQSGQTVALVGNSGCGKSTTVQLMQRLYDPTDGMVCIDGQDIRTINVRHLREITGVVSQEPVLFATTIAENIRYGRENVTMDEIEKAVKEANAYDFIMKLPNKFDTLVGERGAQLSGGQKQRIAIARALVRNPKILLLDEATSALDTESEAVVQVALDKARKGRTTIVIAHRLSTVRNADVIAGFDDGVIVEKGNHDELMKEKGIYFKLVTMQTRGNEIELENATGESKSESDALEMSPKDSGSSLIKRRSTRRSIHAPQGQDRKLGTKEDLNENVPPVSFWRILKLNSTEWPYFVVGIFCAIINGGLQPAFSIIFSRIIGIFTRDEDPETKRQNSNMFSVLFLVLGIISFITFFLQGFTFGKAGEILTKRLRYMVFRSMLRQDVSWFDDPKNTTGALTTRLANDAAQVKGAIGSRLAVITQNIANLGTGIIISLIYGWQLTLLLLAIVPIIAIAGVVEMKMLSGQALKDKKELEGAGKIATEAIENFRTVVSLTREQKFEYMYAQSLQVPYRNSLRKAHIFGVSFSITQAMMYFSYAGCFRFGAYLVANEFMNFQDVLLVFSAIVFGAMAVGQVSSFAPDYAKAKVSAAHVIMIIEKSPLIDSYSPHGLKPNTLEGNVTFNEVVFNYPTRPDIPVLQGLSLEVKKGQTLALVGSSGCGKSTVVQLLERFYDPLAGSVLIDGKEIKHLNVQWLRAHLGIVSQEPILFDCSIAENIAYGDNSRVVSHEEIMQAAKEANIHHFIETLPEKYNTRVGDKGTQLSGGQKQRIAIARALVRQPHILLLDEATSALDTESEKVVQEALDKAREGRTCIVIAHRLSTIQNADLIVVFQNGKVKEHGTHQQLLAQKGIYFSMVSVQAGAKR

efflux ratio r (relative transport ratio) ([1]; parental + zosuquidar 5 μM): 1.1
efflux ratio r (relative transport ratio) ([1]; parental, no inhibitor): 1.7
transport substrate of endogenous canine ABCB1 ([1]; in vitro): moderate transport substrate
efflux ratio r (relative transport ratio) ([2]; mAbcg2 + zosuquidar 5 μM): 1.8
efflux ratio r (relative transport ratio) ([2]; mAbcg2 + zosuquidar 5 μM + Ko143 5 μM): 1.4
transport by mouse Abcg2 ([2]; in vitro): at best slightly transported
SMILES: O=C(Nc1nccs1)C(c1cc(F)ccc1O)N1Cc2ccccc2C1=O (centres unmarked) [EAI045]
effect in L858R/T790M mutant mice, combination treatment ([3]; EAI045 combined with cetuximab): marked tumor regressions
effect in L858R/T790M mutant mice, agent alone ([3]; single agent): very modest effect
